These results are taken from patent US12162861B2, “Dopamine D3 receptor selective antagonists/partial agonists; method of making; and use thereof” (THE UNITED STATES OF AMERICA, AS REPRESENTED BY THE …, priority 2016, dated 2024).

The target of one assay is T1, human D3R (Homo sapiens, UniProt P35462).
T1 construct: expressed in transfected cells; host or cells: HEK293
In words: Radioligand competition binding, [3H]N-methylspiperone, D3R. The conditions noted are these: Table 1A; for D4/D3: ratio of Ki values; for D3R K ± SEM (nM): HEK 293 cells transfected with hD3R, [3H]N-methylspiperone. The method, then:
Binding at dopamine D2-like receptors was determined using previously described methods. […] Upon reaching 80-90% confluence, cells were harvested using pre-mixed Earle's Balanced Salt Solution (EBSS) with 5 μM EDTA (Life Technologies) and centrifuged at 3000 rpm for 10 min at 21° C. The supernatant was removed and the pellet was resuspended in 10 mL hypotonic lysis buffer (5 mM MgCl2·6H2O, 5 mM Tris, pH 7.4 at 4° C.) and centrifuged at 20,000 rpm for 30 min at 4° C. The pellet was then resuspended in fresh EBSS buffer made from 8.7 g/L Earle's Balanced Salts without phenol red (US Biological, Salem, MA), 2.2 g/L sodium bicarbonate, pH to 7.4. A Bradford protein assay (Bio-Rad, Hercules, CA) was used to determine the protein concentration and membranes were diluted to 500 μg/mL and stored in a −80° C. freezer for later use.
Radioligand competition binding experiments were conducted using thawed membranes. Test compounds were freshly dissolved in 30% DMSO and 70% H2O to a stock concentration of 100 μM. To assist the solubilization of free-base compounds, 10 μl of glacial acetic acid was added along with the DMSO. Each test compound was then diluted into 13 half-log serial dilutions using 30% DMSO vehicle; final test concentrations ranged from 10 μM to 10 pM. Previously frozen membranes were diluted in fresh EBSS to a 100 μg/mL (for hD2R or hD3R) or 200 μg/mL (hD4R) stock for binding. Radioligand competition experiments were conducted in glass tubes containing 300 μl fresh EBSS buffer with 0.2 mM sodium metabisulfite, 50 μl of diluted test compound, 100 μl of membranes (10 μg total protein for hD2R or hD3R, 20 μg total protein for hD4R), and 50 μl of [^3H]N-methylspiperone (0.4 nM final concentration; Perkin Elmer). Nonspecific binding was determined using 10 μM butaclamol (Sigma-Aldrich, St. Louis, MO) and total binding was determined with 30% DMSO vehicle. All compound dilutions were tested in triplicate and the reaction incubated for one hour at room temperature. The reaction was terminated by filtration through Whatman GF/B filters, presoaked for one hour in 0.5% polyethylenimine, using a Brandel R48 filtering manifold (Brandel Instruments, Gaithersburg, MD). The filters were washed 3 times with 3 mL of ice cold EBSS buffer and transferred to scintillation vials. […] IC50 values for each compound were determined from dose-response curves and Ki values were calculated using the Cheng-Prusoff equation; these analyses were performed using GraphPad Prism version 5.00 for Windows (GraphPad Software, San Diego, CA). Reported Ki values were determined from least three independent experiments.
A general note: Displacement assays read how much labelled ligand stays bound in the presence of the test substance.

The next assay deals with T2, human D2R (Homo sapiens, UniProt P14416).
T2 construct: expressed in transfected cells; host or cells: HEK293
The assay is described as follows: Radioligand competition binding, [3H]N-methylspiperone, D2R. To be noted: Table 1A; ratio of Ki values. As for the experimental part: Binding at dopamine D2-like receptors was determined using previously described methods. (Chen et al. “Tranylcypromine substituted cis-hydroxycyclobutylnaphthamides as potent and selective dopamine D(3) receptor antagonists.” J. Med. Chem. 2014, 57, 4962-4968) Membranes were prepared from HEK293 cells expressing human D2R, D3R or D4R, grown in a 50:50 mix of DMEM and Ham's F12 culture media, supplemented with 20 mM HEPES, 2 mM L-glutamine, 0.1 mM non-essential amino acids, 1× antibiotic/antimycotic, 10% heat-inactivated fetal bovine serum, and 200 μg/mL hygromycin (Life Technologies, Grand Island, NY) and kept in an incubator at 37° C. and 5% CO2. Upon reaching 80-90% confluence, cells were harvested using pre-mixed Earle's Balanced Salt Solution (EBSS) with 5 μM EDTA (Life Technologies) and centrifuged at 3000 rpm for 10 min at 21° C. The supernatant was removed and the pellet was resuspended in 10 mL hypotonic lysis buffer (5 mM MgCl2·6H2O, 5 mM Tris, pH 7.4 at 4° C.) and centrifuged at 20,000 rpm for 30 min at 4° C. The pellet was then resuspended in fresh EBSS buffer made from 8.7 g/L Earle's Balanced Salts without phenol red (US Biological, Salem, MA), 2.2 g/L sodium bicarbonate, pH to 7.4. A Bradford protein assay (Bio-Rad, Hercules, CA) was used to determine the protein concentration and membranes were diluted to 500 μg/mL and stored in a −80° C. freezer for later use.
Radioligand competition binding experiments were conducted using thawed membranes. Test compounds were freshly dissolved in 30% DMSO and 70% H2O to a stock concentration of 100 μM. To assist the solubilization of free-base compounds, 10 μl of glacial acetic acid was added along with the DMSO. Each test compound was then diluted into 13 half-log serial dilutions using 30% DMSO vehicle; final test concentrations ranged from 10 μM to 10 pM. Previously frozen membranes were diluted in fresh EBSS to a 100 μg/mL (for hD2R or hD3R) or 200 μg/mL (hD4R) stock for binding. Radioligand competition experiments were conducted in glass tubes containing 300 μl fresh EBSS buffer with 0.2 mM sodium metabisulfite, 50 μl of diluted test compound, 100 μl of membranes (10 μg total protein for hD2R or hD3R, 20 μg total protein for hD4R), and 50 μl of [^3H]N-methylspiperone (0.4 nM final concentration; Perkin Elmer). Nonspecific binding was determined using 10 μM butaclamol (Sigma-Aldrich, St. Louis, MO) and total binding was determined with 30% DMSO vehicle. All compound dilutions were tested in triplicate and the reaction incubated for one hour at room temperature. The reaction was terminated by filtration through Whatman GF/B filters, presoaked for one hour in 0.5% polyethylenimine, using a Brandel R48 filtering manifold (Brandel Instruments, Gaithersburg, MD). The filters were washed 3 times with 3 mL of ice cold EBSS buffer and transferred to scintillation vials. 3 mL CytoScint liquid scintillation cocktail (MP Biomedicals, Solon, OH) was added and vials were counted using a Perkin Elmer Tri-Carb 2910 TR liquid scintillation counter (Waltham, MA). IC50 values for each compound were determined from dose-response curves and Ki values were calculated using the Cheng-Prusoff equation; these analyses were performed using GraphPad Prism version 5.00 for Windows (GraphPad Software, San Diego, CA). Reported Ki values were determined from least three independent experiments.

Molecules are shown by their SMILES.

T1 sequence (P35462 whole entry): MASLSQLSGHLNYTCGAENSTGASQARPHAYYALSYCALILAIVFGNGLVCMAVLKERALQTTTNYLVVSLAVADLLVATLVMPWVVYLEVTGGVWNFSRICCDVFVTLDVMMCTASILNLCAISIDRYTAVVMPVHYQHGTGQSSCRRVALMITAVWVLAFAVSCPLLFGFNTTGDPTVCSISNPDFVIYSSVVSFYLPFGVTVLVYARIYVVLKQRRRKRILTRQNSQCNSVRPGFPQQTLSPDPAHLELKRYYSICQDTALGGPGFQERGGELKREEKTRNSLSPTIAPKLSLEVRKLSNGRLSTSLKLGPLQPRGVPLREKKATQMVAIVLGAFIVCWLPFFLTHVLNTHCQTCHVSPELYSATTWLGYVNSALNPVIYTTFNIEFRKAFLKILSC
T2 sequence (P14416 whole entry): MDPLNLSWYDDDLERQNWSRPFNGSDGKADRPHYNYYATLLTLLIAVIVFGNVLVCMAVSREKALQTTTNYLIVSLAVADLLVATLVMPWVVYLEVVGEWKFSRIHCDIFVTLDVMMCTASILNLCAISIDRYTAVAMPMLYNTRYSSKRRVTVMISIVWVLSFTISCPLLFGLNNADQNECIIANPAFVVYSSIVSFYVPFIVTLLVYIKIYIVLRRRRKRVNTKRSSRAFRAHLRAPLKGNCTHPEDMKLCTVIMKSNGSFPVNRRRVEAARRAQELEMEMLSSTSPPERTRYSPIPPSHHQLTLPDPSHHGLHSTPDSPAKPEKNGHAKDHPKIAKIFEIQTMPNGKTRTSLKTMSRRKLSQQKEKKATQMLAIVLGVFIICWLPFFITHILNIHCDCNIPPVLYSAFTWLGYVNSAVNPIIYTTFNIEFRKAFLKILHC

For `CCc1cccc(N2CCN(CCCCNC(=O)c3cc4ccccc4[nH]3)CC2)c1Cl` [Compound 18, N-(4-(4-(2-Chloro-3-ethylphenyl)piperazin-1-yl)butyl)-1H-indole-2-carboxamide], the D4/D3 at human D3R was 2352. The D4/D2 at human D2R is given as 61.

`CCc1cccc(N2CCN(CCCCNC(=O)c3cc4ccccc4o3)CC2)c1Cl` [Compound 20, N-(4-(4-(2-Chloro-3-ethylphenyl)piperazin-1-yl)butyl)benzofuran-2-carboxamide]: at human D3R, the “D3R K ± SEM (nM)” value was “subnanomolar binding affinities” and the D4/D3 is listed as 2327. Besides, the D4/D2 at human D2R was 56.

For `CCc1cccc(N2CCN(CC(O)CCNC(=O)c3cc4ccccc4o3)CC2)c1Cl` (centres unmarked) [Compound 21, N-(4-(4-(2-Chloro-3-ethylphenyl)piperazin-1-yl)-3-hydroxybutyl)benzofuran-2-carboxamide], at human D3R, the “D3R K ± SEM (nM)” value is reported as “subnanomolar binding affinities” and the D4/D3 came to 2417. The D4/D2 at human D2R amounted to 15.

For the compound `CCc1cccc(N2CCN(CCCCNC(=O)c3cn4ccccc4n3)CC2)c1Cl` [Compound 22, N-(4-(4-(2-chloro-3-ethylphenyl)piperazin-1-yl)butyl)imidazo[1,2-a]pyridine-2-carboxamide], on human D3R, the D4/D3 was found to be 2482. Moreover, on human D2R, the D4/D2 is reported as 145.2.

In the case of `CCc1cccc(N2CCN(CC(O)CCNC(=O)c3cn4ccccc4n3)CC2)c1Cl` (centres unmarked) [Compound 23, N-(4-(4-(2-Chloro-3-ethylphenyl)piperazin-1-yl)-3-hydroxybutyl)imidazo[1,2-a]pyridine-2-carboxamide], the D4/D3 at human D3R turned out to be 2671. Also, at human D2R, the D4/D2 amounted to 58.5.

Regarding `CCc1cccc(N2CCN(CCCCNC(=O)c3c(C)nc4sccn34)CC2)c1Cl` [Compound 24, N-(4-(4-(2-chloro-3-ethylphenyl)piperazin-1-yl)butyl)-6-methylimidazo[2,1-b]thiazole-5-carboxamide], on human D3R, the D4/D3 was 152. Further, at human D2R, the D4/D2 is listed as 30.8.

Consider `CCc1c[nH]c(C(=O)NCCCCN2CCN(c3cccc(CC)c3Cl)CC2)n1` [Compound 25, N-(4-(4-(2-Chloro-3-ethylphenyl)piperazin-1-yl)butyl)-4-ethyl-1H-imidazole-2-carboxamide], for which the D4/D3 at human D3R stood at 439. The D4/D2 on human D2R is reported as 40.0.

Take `CCc1cccc(N2CCN(CCCCNC(=O)c3nc(C)c[nH]3)CC2)c1Cl` [Compound 26, N-(4-(4-(2-Chloro-3-ethylphenyl)piperazin-1-yl)butyl)-4-methyl-1H-imidazole-2-carboxamide]: the D4/D3 at human D3R is reported as 853. The D4/D2 on human D2R is given as 43.4.

As for `CCc1cccc(N2CCN(CC(O)CCNC(=O)c3nc(C)c[nH]3)CC2)c1Cl` (centres unmarked) [Compound 27, N-(4-(4-(2-Chloro-3-ethylphenyl)piperazin-1-yl)-3-hydroxybutyl)-4-methyl-1H-imidazole-2-carboxamide], on human D3R, the D4/D3 is listed as 175. At human D2R, the D4/D2 was determined as 13.1.

Regarding `CCc1cc(Cl)c(OC)c(N2CCN(CC(O)CCNC(=O)c3cc4ccccc4o3)CC2)c1` (centres unmarked) [Compound 31, N-(4-(4-(3-Chloro-5-ethyl-2-methoxyphenyl)piperazin-1-yl)-3-hydroxybutyl)benzofuran-2-carboxamide], the D4/D3 at human D3R is 146. Further, the D4/D2 at human D2R is reported as 3.3.

Take `CCc1cccc(N2CCN(C/C=C/CNC(=O)c3nc(C)c[nH]3)CC2)c1Cl` [Compound 35, (E)-N-(4-(4-(2-Chloro-3-ethylphenyl)piperazin-1-yl)but-2-en-1-yl)-4-methyl-1H-imidazole-2-carboxamide]: on human D3R, the D4/D3 came to 393. Besides, the D4/D2 at human D2R was determined as 31.2.

On to `CCc1cccc(N2CCN(CCC(O)CNC(=O)c3cc4ccccc4[nH]3)CC2)c1Cl` (centres unmarked) [Compound 40, N-(4-(4-(2-Chloro-3-ethylphenyl)piperazin-1-yl)-2-hydroxybutyl)-1H-indole-2-carboxamide], for which the D4/D3 on human D3R was determined as 1525. Besides, the D4/D2 on human D2R came to 44.7.
